Data on 1 molecule can be found in US9051350B2, “Macrocyclic antiproliferation agents and methods of treatment” (University of Florida Research Foundation, Inc., priority 2008, dated 2015).

Holding throughout (assay): Cell viability assay (MTT), antiproliferative activity
Common to all, as to assay type: cell-based

Test [1] deals with cervical carcinoma (HeLa). The conditions noted are these: Homo sapiens, HeLa cells, 48 hours of incubation. On the procedure: (§1) Cell culture medium was purchased from Invitrogen and fetal bovine serum (FBS) from Hyclone. Cells were propagated and maintained in DMEM medium (high glucose) supplemented with 10% FBS at 37° C. humidified air and 5% CO2.
(§2) HT29 colon adenocarcinoma cells were used for the bioassay-guided fractionation. To determine cell type selectivity, cells from four cancer cell lines (U2OS, HeLa, HT29 and IMR-32) were plated in 96-well format and incubated at 37° C. (5% CO2) for 24 hours. A dilution series of 1 in DMSO (1 μL) was then added, and after further 48 hours of incubation the cell viability was quantified using a standard assay kit based on MTT dye according to the manufacturer's instructions (Promega).

Test [2] has as its system colorectal adenocarcinoma (HT29). The conditions noted are these: Homo sapiens, HT-29, HT29 cells, 48 hours of incubation. Here is the method:
as §1, §2

For test [3], the system named is human osteosarcoma (U2OS). The conditions noted are these: U2OS cells, 48 hours of incubation. Here is the method:
as §1, §2

The test system of test [4] is neuroblastoma (IMR-32). The note with it: Homo sapiens, IMR-32 cells, 48 hours of incubation. Here is the method:
as §1, §2

*1 amine or outer side, *2 acyl side, *3 side chain or, on linkers, in order; H or OH if unused. Where a SMILES comes first, the peptide text is derived from it. [ ]: non-standard residue; d: D form. ξ: configuration not given here. dβ3hAla(2R-Me) = C[C@@H](N[*:1])[C@@H](C)C(=O)[*:2]; X1 = CN(C(Cc1ccccc1)C1=N[C@H](C(=O)[*:2])CS1)[*:1]; X2 = CC[C@@H](N[*:1])C1=NC(C(=O)[*:2])CS1; d(aThr) = C[C@@H](O)[C@@H](N)C(=O)O; dNMeL = CN[C@H](CC(C)C)C(=O)O; ξPhLac = O=C(O)C(O)Cc1ccccc1; NMeV = CN[C@H](C(=O)O)C(C)C

For `CC[C@H]1NC(=O)[C@@H]2CSC(=N2)C(Cc2ccccc2)N(C)C(=O)[C@@H]2CCCN2C(=O)[C@H](C(C)C)N(C)C(=O)C(Cc2ccccc2)OC(=O)[C@H](C)[C@@H](C)NC(=O)[C@@H]([C@@H](C)O)NC(=O)[C@@H](CC(C)C)N(C)C(=O)C2CSC1=N2` (stereo partly drawn) [Compound 1, grassypeptolide] (cyclo([NMeV]P[X1][X2][dNMeL][d(aThr)][dβ3hAla(2R-Me)][ξPhLac])), the IC50 in test [1] was 1000 nM; in test [2], 1500 nM; in test [3] it was 2200 nM; in test [4], 4200 nM.
